Laboratory results from patent US20230042917A1, “DIRECT REPROGRAMMING OF SOMATIC CELLS INTO MYOGENIC CELLS” (THE GENERAL HOSPITAL CORPORATION, priority 2016, published 2023).

Tested on: MEFs expressing MyoD
Assay: Reprogramming of MyoD-expressing MEFs with small molecules (myotubes, proliferative cells, contraction, Pax7 staining)
Type: cell-based, mouse
Details: for formation of MyHC+, polynucleated myotubes / generation of proliferative cells: Knockout DMEM, 10% KOSR, 10% FBS, 10 ng/ml bFGF
Source text: A doxycycline (dox) inducible lentiviral system (tetOP-MyoD) was engineered, allowing for inducible and reversible activation of MyoD in target cells. […] The myogenic identity of converted cells was confirmed by immunofluorescence staining for the differentiation marker myosin heavy chain (MyHC), which was absent in uninfected MEFs (FIG. 14C).
MEFs undergoing MyoD-induced lineage conversion were exposed to various small molecules and cytokines in an attempt to induce reprogramming into a proliferative, myogenic progenitor-like cell state in addition to mature myotubes (FIG. 14A, bottom row). Specifically, compounds including the GSK3β inhibitor CHIR99021 (abbreviated as “G”) and the TGF-01 receptor inhibitor RepSox (abbreviated as “R”) were used. In addition, the effect of the cyclic AMP agonist Forskolin (abbreviated as “F”), which reportedly facilitates the transient expansion of satellite cells in vitro was tested. These compounds were added individually or combinatorially to MEFs expressing MyoD and cultured in Knockout DMEM media containing 10% KOSR and 10% FBS and supplemented with 10 ng/ml bFGF, which promotes satellite cell and myoblast growth. […] Cultures treated with these small molecules typically assembled into three-dimensional colonies with emanating myotubes and numerous small, round cells that seem to be muscle progenitors (FIG. 14B and live video monitoring was used to monitor the muscle progenitors). KOSR media contains ascorbic acid, which enhances reprogramming into iPSCs by modulating epigenetic regulators. To determine whether ascorbic acid is required for the induction of these proliferative, putative progenitor cells using our culture system, MEFs expressing MyoD were exposed to F/R in the presence or absence of ascorbic acid using DMEM media containing FBS and bFGF but lacking KOSR.
To assess the temporal requirement for exogenous MyoD expression and small molecules during the establishment and maintenance of our progenitor-like cell population, infected MEFs were treated with dox for 0, 2, 4, 6, 8 or 10 days in the presence of F/R, followed by 5 days of dox withdrawal before scoring for colonies that proliferated and contracted (FIG. 14G). […] By contrast, continuous exposure of cultures to F/R was required to maintain these cultures upon passaging (FIG. 14G and data not shown). Thus, without being bound by any particular theory, small molecules and growth factors collaborate with transient MyoD expression to endow MEFs with a myogenic progenitor-like state. These cells are provisionally termed “induced myogenic progenitor cells” (iMPCs).
Mouse embryonic fibroblasts (MEFs), Tail-tip fibroblasts (TTFs) and the commercial myoblast cell line C2C12 (ATCC®CRL-1772™) were cultured in “MEF medium” containing DMEM (ThermoFisher Scientific, catalog number 10313-021), supplemented with 10% Fetal Bovine Serum (FBS) (HyClone catalog number SH30396.03), 1% GlutaMAX (ThermoFisher Scientific, catalog number 35050061), 1% non-essential amino acids (ThermoFisher Scientific, catalog number 11140050), 1% penicillin-streptomycin (ThermoFisher Scientific, catalog number 15140122), 0.5% β-mercaptoethanol (ThermoFisher Scientific, catalog number 21985-023). Freshly isolated satellite cells and derivative myoblasts were cultured using a 1:1 ratio of DMEM and F-10 (1×) Nutrient mix (ThermoFisher Scientific, catalog number 11550-043) supplemented with 10% horse serum (ThermoFisher Scientific, catalog number 16050-122), 20% FBS (HyClone catalog number SH30396.03) and […] basic-FGF (R&D 233-FB). Satellite cells and myoblasts were cultured on plates coated with Matrigel Basement Membrane Matrix (Catalog number 356237, Corning). […]

Question: How did the “Pax7+ cells (immunofluorescence)” value (MEFs expressing MyoD, in the presence of KOSR or ascorbate) turn out when `Cc1c[nH]c(-c2cnc(NCCNc3ccc(C#N)cn3)nc2-c2ccc(Cl)cc2Cl)n1` [G, CHIR99021] was run?
Answer: The value was “only in the presence of FR”.

Question: And the “formation of MyHC+, polynucleated myotubes” value (MEFs expressing MyoD)?
Answer: The value was “increased”.

Question: And the “generation of proliferative cells” value (MEFs expressing MyoD)?
Answer: Its value is “did not generate any proliferative cells”.

Question: How did the “formation of MyHC+, polynucleated myotubes” value (MEFs expressing MyoD) turn out when `Cc1cccc(-c2n[nH]cc2-c2ccc3ncccc3n2)n1` [R, 2-3[(6-methyl-2-pyridinyl)-1H-pyrazol-4-yl]-1,5-napthyridine] was run?
Answer: The value was “increased”.

Question: And the “generation of proliferative cells” value (MEFs expressing MyoD)?
Answer: The value was “did not generate any proliferative cells”.

Question: Which results are given for `O=C1O[C@H]([C@@H](O)CO)C(O)=C1O` [ascorbic acid]?
Answer: generation of proliferative cells and contracting myotubes (MEFs expressing MyoD exposed to F/R, DMEM with FBS and bFGF lacking KOSR): depended on ascorbic acid; Pax7+ iMPC formation after withdrawal of SR (MyoD + FR, medium without serum replacement): partially rescues this phenotype
